Laboratory results from patent US8053578B2, “Alpha-fluoroalkyl dihydrotetrabenazine imaging agents and probes” (General Electric Company, priority 2007, dated 2011).

Biological target: T1, VMAT-2 (Homo sapiens, UniProt Q05940)
T1 construct: Novascreen Biosciences Corporation (contract assay provider) protocol Cat. No. 100-0751
Test: VMAT-2 binding affinity measurement (Novascreen protocol Cat. No. 100-0751)
Settings: for Ki: Novascreen Biosciences protocol Cat. No. 100-0751; for VMAT-2 binding affinity, in words, relative to (+)-DTBZ control (Compound 18): summary of the Table 9 data
Protocol: In addition, the VMAT-2 binding affinity of a fluoroalkyl tetrabinazine carbinol compound 38 bearing an acetoxy group at ring position-2 was also measured. VMAT-2 binding affinity measurements were carried out by Novascreen Biosciences Corporation (Hanover, Md., USA) using protocol Cat. No. 100-0751. Novascreen, Inc. is a commercial provider of biological assays for the pharmaceutical industry.

T1 sequence (Q05940 whole entry, species assumed): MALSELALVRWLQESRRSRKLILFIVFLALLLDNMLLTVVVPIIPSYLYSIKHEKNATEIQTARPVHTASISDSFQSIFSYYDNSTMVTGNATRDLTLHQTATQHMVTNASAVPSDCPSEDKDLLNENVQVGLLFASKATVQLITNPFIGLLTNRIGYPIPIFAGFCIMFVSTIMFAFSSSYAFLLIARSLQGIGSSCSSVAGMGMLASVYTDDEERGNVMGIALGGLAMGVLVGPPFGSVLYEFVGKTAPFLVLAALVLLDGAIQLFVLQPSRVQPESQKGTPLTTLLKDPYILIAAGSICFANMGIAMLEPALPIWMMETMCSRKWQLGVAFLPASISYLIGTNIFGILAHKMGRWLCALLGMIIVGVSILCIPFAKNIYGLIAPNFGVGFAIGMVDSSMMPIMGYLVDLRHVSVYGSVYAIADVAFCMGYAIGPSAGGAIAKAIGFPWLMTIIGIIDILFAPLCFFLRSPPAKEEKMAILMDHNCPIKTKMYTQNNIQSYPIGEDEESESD

Compound	Ki [nM]	VMAT-2 binding affinity, in words, relative to (+)-DTBZ control (Compound 18)
COc1cc2c(cc1OC)[C@H]1C[C@@H](O)[C@H](CC(C)(C)CC[19F])CN1CC2 [Compound 32]	0.45	very high binding affinity
COc1cc2c(cc1OC)[C@H]1C[C@H](O)[C@H](CC(C)(C)CC[19F])CN1CC2 [Compound 2-epi-32]	2.6	very high binding affinity
COc1cc2c(cc1OC)[C@H]1C[C@](O)(C#CCF)[C@H](CC(C)C)CN1CC2 [Compound 39]		somewhat lower yet still robust binding activity
COc1cc2c(cc1OC)[C@H]1C[C@@](C#CCF)(OC(C)=O)[C@H](CC(C)C)CN1CC2 [Compound 38]		somewhat lower yet still robust binding activity
COc1cc2c(cc1OC)[C@H]1C[C@@H](O)[C@H](CCCC[19F])CN1CC2 [Compound 31]	6.4	very high binding affinity
